Experimental data taken from US20230302022A1, “PREVENTING OR MITIGATING CHEMOTHERAPY INDUCED ALOPECIA USING VITAMIN D” (priority 2016, published 2023).

Tests used:
[1] = tested on: MIAC51 (chloroleukemia cells); test: Chloroleukemia (MIAC51) in rats: cure / survival under chemotherapy with topical calcitriol; format: in vivo, rat; settings: CTX, after Two Rounds of Chemotherapy
Protocol: For experiments in which rats were transplanted with chloroleukemia, on Day 5 after birth, rats were randomly divided into three groups of 45 each. All rats received 1×10^5 chloroleukemic cell line MIAC51 (i.p.) in 0.1 mL of serum free (SF) RPMI. MIAC51 were cultured in RPMI 1640 supplemented with L-glutamine and 10% fetal bovine serum at 37° C. in a 5% CO2, 100% humidity incubator. Cells were grown to 50% confluency (1.5×106 mL) collected in 50 mL conical tubes, centrifuged at 600 g×10 min. at room temperature and resuspended in SF-RPMI at a concentration of 1×10^6/mL. Group 1 rats received no further treatment. Group 2 rats received topical vehicle and CTX on day 13. […] Topical applications were performed as described above.
On day 23 after birth, a sample of blood was taken from all rats and differentials performed. Rats with leukemia were sacrificed, rats without leukemia were kept and a second differential performed on day 31, at any point if leukemia was detected, animals were sacrificed by CO2 asphyxiation.
On day 5 after birth all rats received 1×105 MIAC51 intraperitoneally in 0.1 mL of serum free (SF) RPMI. MIAC51 were cultured in RPMI 1640 supplemented with L-glutamine and 10% fetal bovine serum at […] in a 5% CO2, 100% humidity incubator. Cells were grown to 50% confluency (1.5×106 mL) collected in 50 mL conical tubes, centrifuged at 600 g for 10 minutes at room temperature and resuspended in SF-RPMI at a concentration of 1×10^6/mL prior to injection.
[…]

Long Evans rats = test: CIA in chloroleukemic Long Evans rats receiving multi-course chemotherapy; format: in vivo, rat; settings: for ALOPECIA 4+ (number of rats): Cyclophosphamide (CTX)

SMILES: O=P1(N(CCCl)CCCl)NCCCO1 (centres unmarked) [CTX, Cyclophosphamide]
- Survival Rate, % [1]: 20%
- Cured (number of rats) ([1]; of 40): 8
- ALOPECIA 4+ (number of rats) (Long Evans rats; after First Round of Chemotherapy): 40
- ALOPECIA 4+ (number of rats) (Long Evans rats; after Second Round of Chemotherapy): 8
- extent of alopecia (grade), all rats (Long Evans rats; cyclophosphamide regimen, after the first round of chemotherapy): +4
